Reference: publication PMC6007963, “An ^18F-Labeled Poly(ADP-ribose) Polymerase Positron Emission Tomography Imaging Agent” (Journal of Medicinal Chemistry, 2018)
Where two headings read alike, the source gives them in different places.

Experiments:
[1] = lipophilicity (log Poct) by C-18 reverse-phase HPLC; assay type: physicochemical; settings: C-18 reverse-phase HPLC column
human serum albumin = human serum albumin (Homo sapiens, UniProt P02768); experiment: percentage plasma protein binding by human serum albumin coated HPLC column; assay type: in vitro ADME; settings: for fraction unbound: human, read-out: %PPB (converted)
Sequence of human serum albumin (P02768 25-609): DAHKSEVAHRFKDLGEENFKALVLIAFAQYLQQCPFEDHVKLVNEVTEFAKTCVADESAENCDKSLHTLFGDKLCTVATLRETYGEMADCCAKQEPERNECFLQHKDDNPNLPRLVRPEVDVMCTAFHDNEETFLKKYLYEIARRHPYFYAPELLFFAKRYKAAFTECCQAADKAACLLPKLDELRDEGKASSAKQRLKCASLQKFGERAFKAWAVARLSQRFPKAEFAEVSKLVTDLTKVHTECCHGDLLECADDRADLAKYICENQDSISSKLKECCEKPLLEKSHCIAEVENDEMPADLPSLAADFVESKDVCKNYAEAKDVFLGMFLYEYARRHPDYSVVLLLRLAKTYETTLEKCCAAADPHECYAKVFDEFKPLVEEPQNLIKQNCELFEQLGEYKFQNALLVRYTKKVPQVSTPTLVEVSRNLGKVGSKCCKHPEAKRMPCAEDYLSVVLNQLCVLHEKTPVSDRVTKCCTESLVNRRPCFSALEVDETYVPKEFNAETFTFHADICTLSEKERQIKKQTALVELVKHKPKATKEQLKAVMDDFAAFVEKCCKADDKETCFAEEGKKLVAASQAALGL

PARP-1 = PARP-1 (Homo sapiens, UniProt P09874); experiment: cell-free PARP-1 IC50 assay (colorimetric dose-response)
Sequence of PARP-1 (P09874 whole entry, species assumed): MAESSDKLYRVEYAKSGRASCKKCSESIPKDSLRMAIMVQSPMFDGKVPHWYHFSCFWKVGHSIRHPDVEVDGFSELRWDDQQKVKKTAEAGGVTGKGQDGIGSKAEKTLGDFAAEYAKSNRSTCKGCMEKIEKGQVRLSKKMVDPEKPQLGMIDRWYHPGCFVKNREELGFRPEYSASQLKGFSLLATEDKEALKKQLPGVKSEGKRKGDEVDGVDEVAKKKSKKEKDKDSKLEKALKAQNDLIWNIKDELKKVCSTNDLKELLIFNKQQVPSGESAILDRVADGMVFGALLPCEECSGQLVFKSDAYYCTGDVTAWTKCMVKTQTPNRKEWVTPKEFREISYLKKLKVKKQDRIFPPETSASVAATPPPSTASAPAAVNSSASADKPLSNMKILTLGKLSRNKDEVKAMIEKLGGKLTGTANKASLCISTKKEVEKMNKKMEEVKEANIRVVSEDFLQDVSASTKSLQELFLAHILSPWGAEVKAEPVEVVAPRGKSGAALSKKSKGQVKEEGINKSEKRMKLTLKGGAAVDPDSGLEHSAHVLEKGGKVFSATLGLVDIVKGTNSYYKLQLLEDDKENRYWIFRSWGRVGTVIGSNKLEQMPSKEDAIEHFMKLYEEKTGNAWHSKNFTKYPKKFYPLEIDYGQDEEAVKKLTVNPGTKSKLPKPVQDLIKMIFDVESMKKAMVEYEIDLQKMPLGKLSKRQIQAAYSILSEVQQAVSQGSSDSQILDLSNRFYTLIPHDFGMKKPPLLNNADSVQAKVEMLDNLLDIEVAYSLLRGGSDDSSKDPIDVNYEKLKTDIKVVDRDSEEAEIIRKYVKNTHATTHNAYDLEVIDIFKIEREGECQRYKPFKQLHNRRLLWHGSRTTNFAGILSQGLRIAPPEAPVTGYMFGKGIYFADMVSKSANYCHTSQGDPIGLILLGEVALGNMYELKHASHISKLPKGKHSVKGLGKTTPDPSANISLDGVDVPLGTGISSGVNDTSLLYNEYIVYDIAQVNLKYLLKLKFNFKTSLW

mouse plasma stability = assay type: in vitro ADME
Description: (§1) However, these were still within the optimal range for a nuclear imaging agent. […] Collectively, the optimal physiochemical properties and low nanomolar PARP cell-free and cellular IC50 values supported further investigation of 20 as a potential radiotracer for PARP. In the body, radiotracers can be exposed to a number of metabolic pathways, including blood plasma hydrolysis and liver functionalization or conjugation reactions that can have a significant effect on the kinetic properties of the tracer and, subsequently its usefulness in nuclear imaging. With this in mind, the in vitro plasma and liver microsome stability of lead candidate 20 were established by incubating the compound in mouse plasma proteins and human liver microsome enzymes, respectively, using previously described methodologies.[19]

[2] = intrinsic clearance in human liver microsomes; assay type: in vitro ADME; settings: for microsomal CLint: human, liver microsomes
Description: as §1

[3] = design: method as in PMID 26493053; settings: at 120 min; cited from earlier work
[4] = tested on: U87MG-Luc2 human glioblastoma tumor xenografts; experiment: ex vivo biodistribution in subcutaneous U87MG-Luc2 glioblastoma bearing nude mice; design: species or system mouse
Method: Following successful optimization of the radiochemistry, the behavior of [^18F]20 was investigated in vivo in mice bearing subcutaneous U87MG-Luc2 human glioblastoma tumor xenografts using ex vivo biodistribution and PET–MR imaging techniques. Ex vivo biodistribution of [^18F]20 was established at 30, 60, and 120 min after intravenous radiotracer administration, and PET data were acquired by performing a 45 min dynamic scan. […] This is in contrast to observations made by Carney et al., who reported <2%ID/g of bone of [^18F]8 at 120 min.[34] The high bone uptake seen with [^18F]20 could be explained by in vivo defluorination and subsequent radiofluoride accumulation in bone tissue.[35] Despite this, apparent radiotracer tumor uptake was identified in both biodistribution and PET–MR imaging experiments (Figures 3a,c), whereas in the case of the former, the mean ratio of %ID/g of glioblastoma tumor to muscle increased from 1.9 ± 0.5 (n = 4) to 3.6 ± 0.5 (n = 4) between the 30 and 120 min time points.
(§2) U87MG-Luc2 glioblastoma cell culture and implantation procedures were performed as reported previously.[19] Briefly, U87MG-Luc2 cells were purchased commercially from ATCC and cultured in minimum essential media that has been supplemented with 10% w/v fetal calf serum and 2 mM L-glutamine at 37 °C and 5% v/v CO2. Unconscious female CD1 nude mice (6–11 week old; purchased from Charles River Laboratories) had 5 × 10^6 U87MG-Luc2 cells injected subcutaneously into the right flank. The resulting tumor xenografts were measured and monitored visually every 3 days, and tumor-bearing animals were used for in vivo studies 28–30 days post-implantation.
(§3) Subcutaneous tumor bearing mice were administered 1.8–2.6 MBq of [^18F]20 in 0.11–0.21 mL of 5% v/v DMSO in 0.9% saline via bolus tail-vein injections. The remainder of the experiment was conducted as described previously.[19]

[5] = biological target: T1, PARP in U87MG-Luc2 human glioblastoma xenografts (Homo sapiens, UniProt P09874); experiment: ex vivo biodistribution with preblockade by nonradioactive 1; assay type: in vivo, mouse
T1 construct: from tissue; host or cells: subcutaneous U87MG-Luc2 human glioblastoma xenograft in female CD1 nude mice
T1 sequence (P09874 whole entry): as the sequence (P09874 whole entry, species assumed) above
Method: To establish the specificity of [^18F]20 for PARP in bone and tumor tissue, further biodistribution studies were performed on subcutaneous U87MG-Luc2 glioblastoma bearing mice that had PARP binding sites blocked by pretreatment with nonradioactive compound 1 at a dose of 50 mg/kg 20 min prior to [^18F]20 administration. […] This supports the earlier proposed possibility of in vivo [^18F]20 defluorination, leading to free radiofluoride accumulation in the bone.
as §2, §3

[6] = experiment 1, read-out: Clint, experiment 1
[7] = experiment 2, read-out: Clint, experiment 2

Structure (SMILES) | chromatographic logP [1] | fraction unbound (human serum albumin) | IC50 (PARP-1) | also measured
O=C(c1ccccc1F)N1CCN(C(=O)c2cc(Cc3n[nH]c(=O)c4ccccc34)ccc2F)CC1 [compound 9, 4-[3′-[4″-(2‴-Fluorobenzoyl)piperazine-1″-carbonyl]-4′-fluorobenzyl]-2H-phthalazin-1-one] | 2.46 | 0.136 | 3.6 nM | 
O=C(c1ccc(CF)cc1)N1CCN(C(=O)c2cc(Cc3n[nH]c(=O)c4ccccc34)ccc2F)CC1 [compound 20] | 2.51 | 0.107 | 2 nM | stability in mouse plasma (mouse plasma stability; 20 h incubation in mouse plasma): negligible decomposition; plasma stability, 20 h (mouse plasma stability; mean percentage of parent compound remaining after 20 h incubation in mouse plasma): 95%; plasma stability, 0 h (mouse plasma stability; mean percentage of parent compound remaining, mouse plasma, 0 h): 93%; intrinsic clearance fold greater in comparison to 1 ([2]; compared with 1): approximately 3 fold; microsomal CLint [2, 6]: 74 µL/min/mg; microsomal CLint [2, 7]: 90 µL/min/mg; cell-free IC50 fold less than that of 1 (PARP-1; compared with 1): 6 fold; cell-free IC50 fold less than that of 8 (PARP-1; compared with 8): 3 fold
O=C(c1ccc([18F])cc1)N1CCN(C(=O)c2cc(Cc3n[nH]c(=O)c4ccccc34)ccc2F)CC1 [[^18F]8] |  |  |  | %ID/g of bone [3]: < 2 %ID/g
O=C(c1ccc(C[18F])cc1)N1CCN(C(=O)c2cc(Cc3n[nH]c(=O)c4ccccc34)ccc2F)CC1 [[^18F]20] |  |  |  | mean ratio of %ID/g of glioblastoma tumor to muscle, 30 min ([4]; 30 min after intravenous injection, n = 4): 1.9 ± 0.5; mean ratio of %ID/g of glioblastoma tumor to muscle, 120 min ([4]; 120 min after intravenous injection, n = 4): 3.6 ± 0.5; mean percentage of injected dose per gram (%ID/g) of femur tissue ([4]; across 30, 60 and 120 min after intravenous tracer administration): > 8.5%; ratio of %ID/g of tumor to muscle, preblockade using 1 ([5]; 60 min after [18F]20 administration, 50 mg/kg of 1 given 20 min prior, P < 0.05 vs vehicle): 1.07 ± 0.15; ratio of %ID/g of tumor to muscle, vehicle-pretreated mice ([5]; 60 min after [18F]20 administration, vehicle pretreatment): 1.79 ± 0.39; uptake in bone tissue in presence of excess nonradioactive 1 ([5]; 60 min after radioligand administration, 50 mg/kg of 1 pretreatment): not influenced
O=C(c1cc(Cc2n[nH]c(=O)c3ccccc23)ccc1F)N1CCN(C(=O)C2CC2)CC1 [compound 1, olaparib, reference compound] | 1.95 |  |  | %PPB (human serum albumin): 75.9%; microsomal CLint [2, 6]: 23 µL/min/mg; microsomal CLint [2, 7]: 34 µL/min/mg
O=C(Cc1ccc(F)cc1)N1CCN(C(=O)c2cc(Cc3n[nH]c(=O)c4ccccc34)ccc2F)CC1 [compound 11, 4-[3′-[4″-[(4‴-Fluorophenyl)acetyl]piperazine-1″-carbonyl]-4′-fluorobenzyl]-2H-phthalazin-1-one] | 2.67 | 0.101 | 1.3 nM | 

Further lines, with some results ahead:

chromatographic logP [1] | fraction unbound (human serum albumin) | IC50 (PARP-1) | Structure (SMILES) | also measured
2.81 | 0.094 | 4.1 nM | O=C(CCC(=O)N1CCN(C(=O)c2cc(Cc3n[nH]c(=O)c4ccccc34)ccc2F)CC1)c1ccc(F)cc1 [compound 12, 4-[3′-[4′′′′′-[(4‴-Fluorophenyl)butane-1′′′′,4′′′′-dione]-piperazine-1‴-carbonyl]4″-fluorobenzyl]-2H-phthalazin-1-one] | 
2.66 | 0.139 | 2.9 nM | Cc1cc(F)ccc1C(=O)N1CCN(C(=O)c2cc(Cc3n[nH]c(=O)c4ccccc34)ccc2F)CC1 [compound 10, 4-[3′-[4″-(4‴-Fluoro-2‴-methylbenzoyl)piperazine-1″-carbonyl]-4′-fluorobenzyl]-2H-phthalazin-1-one] | 
3.14 | 0.053 | 11.2 nM | O=C(c1cc(Cc2n[nH]c(=O)c3ccccc23)ccc1F)N1CCN(Cc2ccc(F)cc2)CC1 [compound 13, 4-[3′-[4″-(4‴-Fluorobenzyl)piperazine-1″-carbonyl]-4′-fluorobenzyl]-2H-phthalazin-1-one] | 
2.51 | 0.141 |  | O=C(c1ccc(F)cc1)N1CCN(C(=O)c2cc(Cc3n[nH]c(=O)c4ccccc34)ccc2F)CC1 [compound 8, 4-[3′-[4″-(4‴-Fluorobenzoyl)piperazine-1″-carbonyl]-4′-fluorobenzyl]-2H-phthalazin-1-one] | 
